Legend:
[1] = tested on: Neonatal Rat Ventricular Myocytes (NRVMs); test: Myocyte proliferation assay (EdU assay) in neonatal rat ventricular myocytes; assay type: cell-based; conditions: growth relative to blank myocyte growth without compound added; for Avg 1 uM (average myocyte proliferation): compound 1 uM; for Avg 3 uM (average myocyte proliferation): compound 3 uM; for Avg 10 uM (average myocyte proliferation): compound 10 uM
How it was run: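 Neonatal rat ventricular myocytes, fibroblast-depleted by preplating, serum-starved 24 h (2% FBS/ITS), then given compound at 10, 3 or 1 uM in 6% FBS medium for 36 h before 12 h EdU labelling. Fixed cells stained for EdU (Click-iT), ab8295 primary antibody and DAPI; quantified by high-content confocal imaging.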

[2] = target: T1, human DYRK1A (Homo sapiens, UniProt Q13627); test: DYRK1A enzyme assay (ADP-Glo); assay type: biochemical; conditions: ADP-Glo, ATP 60 μM; read-out: DYRK1A IC50
T1 construct: Recombinant full-length DYRK1A (expressed in E. Coli cells with an N-terminal GST tag); GST (N); purchased SignalChem D09-10G; host or cells: E. coli
How it was run: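 GST-tagged full-length human DYRK1A (E. coli, 3 nM) preincubated 30 min at 25 °C with compound in 40 mM Tris pH 7.5, 20 mM MgCl2, 0.1 mg/ml BSA, 50 μM DTT, then reacted 60 min with 20 μM DYRKtide and 60 μM ATP. ADP-Glo luminescence; IC50 by four-parameter logistic fit.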

| SMILES | IC50 [2] [nM] | Avg 1 uM (average myocyte proliferation) [1] | Avg 3 uM (average myocyte proliferation) [1] | Avg 10 uM (average myocyte proliferation) [1] |
| --- | --- | --- | --- | --- |
| CN(Cc1ccccc1)C1=N/C(=C\c2ccc3c(c2)OCO3)C(=O)N1 [Example 23, (Z)-5-(benzo[d][1,3]dioxol-5-ylmethylene)-2-(benzyl(methyl)amino)-3,5-dihydro-4H-imidazol-4-one] | 100 to 1000 | ** (10%-50%) | ** (10%-50%) | ** (10%-50%) |
| COc1ccc(N(C)C2=N/C(=C\c3ccc4c(c3)OCO4)C(=O)N2)cc1 [Example 12, (Z)-5-(benzo[d][1,3]dioxol-5-ylmethylene)-2-((4-methoxyphenyl)(methyl)amino)-3,5-dihydro-4H-imidazol-4-one] | 100 to 1000 | * (<10% growth relative to blank myocyte growth without compound added.) | ** (10%-50%) |  |
| O=C1/C(=C/c2ccc3ncsc3c2)N=C(N(Cc2ccccc2)c2ccccc2)N1Cc1ccccc1 [Example 42, (Z)-5-(benzo[d]thiazol-6-ylmethylene)-3-benzyl-2-(benzyl(phenyl)amino)-3,5-dihydro-4H-imidazol-4-one] | > 10000 | ** (10%-50%) | ** (10%-50%) | *** (>50%) |
| COc1ccccc1N(C)C1=N/C(=C\c2ccc3c(c2)OCO3)C(=O)N1 [Example 21, (Z)-5-(benzo[d][1,3]dioxol-5-ylmethylene)-2-((2-methoxyphenyl)(methyl)amino)-3,5-dihydro-4H-imidazol-4-one] | 100 to 1000 | *** (>50%) | *** (>50%) | ** (10%-50%) |
| O=C1NC(Nc2ccccc2)=N/C1=C\c1ccc2scnc2c1 [Example 14, (Z)-5-(benzo[d]thiazol-5-ylmethylene)-2-(phenylamino)-3,5-dihydro-4H-imidazol-4-one] | > 10000 | * (<10% growth relative to blank myocyte growth without compound added.) | ** (10%-50%) |  |
| O=C1NC(Nc2ccccc2)=N/C1=C\c1ccc2[nH]ccc2c1 [Example 51, (Z)-5-((1H-indol-5-yl)methylene)-2-(phenylamino)-3,5-dihydro-4H-imidazol-4-one] | > 10000 | ** (10%-50%) | ** (10%-50%) | ** (10%-50%) |
| O=C1NC(Nc2ccccc2)=N/C1=C\c1ccc2nn[nH]c2c1 [Example 56, (Z)-5-((1H-benzo[d][1,2,3]triazol-6-yl)methylene)-2-(phenylamino)-3,5-dihydro-4H-imidazol-4-one] | < 100 | * (<10% growth relative to blank myocyte growth without compound added.) | * (<10% growth relative to blank myocyte growth without compound added.) |  |
| CC(C)NC1=N/C(=C\c2ccc3ncsc3c2)C(=O)N1C [Example 45, (Z)-5-(benzo[d]thiazol-6-ylmethylene)-2-(isopropylamino)-3-methyl-3,5-dihydro-4H-imidazol-4-one] | 100 to 1000 | ** (10%-50%) | ** (10%-50%) | ** (10%-50%) |
| CN(C1=N/C(=C\c2ccc3c(c2)OC(F)(F)O3)C(=O)N1)c1ccccc1 [Example 17, (Z)-5-((2,2-difluorobenzo[d][1,3]dioxol-5-yl)methylene)-2-(methyl(phenyl)amino)-3,5-dihydro-4H-imidazol-4-one] | > 10000 | * (<10% growth relative to blank myocyte growth without compound added.) | * (<10% growth relative to blank myocyte growth without compound added.) | * (<10% growth relative to blank myocyte growth without compound added.) |
| CN(CCN1CCOCC1)C1=N/C(=C\c2ccc3c(c2)OCO3)C(=O)N1 [Example 20, (Z)-5-(benzo[d][1,3]dioxol-5-ylmethylene)-2-(methyl(2-morpholinoethyl)amino)-3,5-dihydro-4H-imidazol-4-one] | 100 to 1000 | * (<10% growth relative to blank myocyte growth without compound added.) | * (<10% growth relative to blank myocyte growth without compound added.) | ** (10%-50%) |

The next lines start with results.

| IC50 [2] [nM] | SMILES | Avg 1 uM (average myocyte proliferation) [1] | Avg 3 uM (average myocyte proliferation) [1] | Avg 10 uM (average myocyte proliferation) [1] |
| --- | --- | --- | --- | --- |
| > 10000 | O=C1NC(Nc2ccc3ncsc3c2)=N/C1=C\c1ccc2c(c1)OCO2 [Example 47, (Z)-5-(benzo[d][1,3]dioxol-5-ylmethylene)-2-(benzo[d]thiazol-6-ylamino)-3,5-dihydro-4H-imidazol-4-one] | *** (>50%) | *** (>50%) | *** (>50%) |
| 100 to 1000 | CN(C1=N/C(=C\c2ccc3ncsc3c2)C(=O)N1)c1ccc(Cl)cc1 [Example 24, (Z)-5-(benzo[d]thiazol-6-ylmethylene)-2-((4-chlorophenyl)(methyl)amino)-3,5-dihydro-4H-imidazol-4-one] | * (<10% growth relative to blank myocyte growth without compound added.) | * (<10% growth relative to blank myocyte growth without compound added.) | * (<10% growth relative to blank myocyte growth without compound added.) |
| > 10000 | O=C1NC(Nc2ccc3ncsc3c2)=N/C1=C\c1ccc2c(c1)OCCO2 [Example 74, (Z)-2-(benzo[d]thiazol-6-ylamino)-5-((2,3-dihydrobenzo[b][1,4]dioxin-6-yl)methylene)-3,5-dihydro-4H-imidazol-4-one] | * (<10% growth relative to blank myocyte growth without compound added.) | *** (>50%) |  |
| < 100 | O=C1NC(Nc2ccc3c(c2)OCCO3)=N/C1=C\c1ccc2ncsc2c1 [Example 81, (Z)-5-(benzo[d]thiazol-6-ylmethylene)-2-((2,3-dihydrobenzo[b][1,4]dioxin-6-yl)amino)-3,5-dihydro-4H-imidazol-4-one] | * (<10% growth relative to blank myocyte growth without compound added.) | * (<10% growth relative to blank myocyte growth without compound added.) |  |
| 100 to 1000 | CN(C1=N/C(=C\c2ccc3ncsc3c2)C(=O)N1)c1ccc2ncsc2c1 [Example 83, (Z)-2-(benzo[d]thiazol-6-yl(methyl)amino)-5-(benzo[d]thiazol-6-ylmethylene)-3,5-dihydro-4H-imidazol-4-one] | ** (10%-50%) | ** (10%-50%) |  |
| > 10000 | O=C1NC(Nc2ccc3ncsc3c2)=N/C1=C\c1ccc2cccnc2c1 [Example 60, (Z)-2-(benzo[d]thiazol-6-ylamino)-5-(quinolin-7-ylmethylene)-3,5-dihydro-4H-imidazol-4-one] | * (<10% growth relative to blank myocyte growth without compound added.) | * (<10% growth relative to blank myocyte growth without compound added.) |  |
| 1000 to 10000 | O=C1NC(NC23CC4CC(CC(C4)C2)C3)=N/C1=C\c1ccc2scnc2c1 [Example 50, (Z)-2-(adamantan-1-ylamino)-5-(benzo[d]thiazol-5-ylmethylene)-3,5-dihydro-4H-imidazol-4-one] | * (<10% growth relative to blank myocyte growth without compound added.) | * (<10% growth relative to blank myocyte growth without compound added.) |  |
| > 10000 | O=C1NC(Nc2ccccc2)=N/C1=C\c1ccc2sccc2c1 [Example 72, (Z)-5-(benzo[b]thiophen-5-ylmethylene)-2-(phenylamino)-3,5-dihydro-4H-imidazol-4-one] | * (<10% growth relative to blank myocyte growth without compound added.) | * (<10% growth relative to blank myocyte growth without compound added.) |  |
| 100 to 1000 | O=C1NC(NCCN2CCOCC2)=N/C1=C\c1ccc2ncsc2c1 [Example 29, (Z)-5-(benzo[d]thiazol-6-ylmethylene)-2-((2-morpholinoethyl)amino)-3,5-dihydro-4H-imidazol-4-one] | ** (10%-50%) | * (<10% growth relative to blank myocyte growth without compound added.) | *** (>50%) |
| 100 to 1000 | COc1ccc(N(C)C2=N/C(=C\c3ccc4ncsc4c3)C(=O)N2)cc1 [Example 38, (Z)-5-(benzo[d]thiazol-6-ylmethylene)-2-((4-methoxyphenyl)(methyl)amino)-3,5-dihydro-4H-imidazol-4-one] | *** (>50%) | ** (10%-50%) | *** (>50%) |
| 1000 to 10000 | O=C1NC(N(CC2CC2)c2ccccc2)=N/C1=C\c1ccc2c(c1)OCCO2 [Example 39, (Z)-2-((cyclopropylmethyl)(phenyl)amino)-5-((2,3-dihydrobenzo[b][1,4]dioxin-6-yl)methylene)-3,5-dihydro-4H-imidazol-4-one] | *** (>50%) | ** (10%-50%) | * (<10% growth relative to blank myocyte growth without compound added.) |
